According to patent US20230083973A1, “SUBSTITUTED CYCLOPROPYL-2,2'-BIP[…], ANALOGUES THEREOF, AND METHODS USING SAME” (priority 2019, published 2023):
Read-outs that look alike come from different tables or passages of the source.

Tested on: HBsAg
Assay: HBsAg assay: inhibition of HBsAg in HepG2.2.15 cells (chemiluminescence immunoassay of supernatant)
Type: cell-based, hepatitis B virus
Details: HBsAg in supernatant at day 6 after exposure to compound, 0.5% DMSO
Outline: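 Secreted HBsAg quantified by CLIA in day-6 supernatants of HepG2.2.15 cultures given compound dilutions at 0.5% final DMSO, with one compound/medium replenishment after 2–3 days. Dose-response fits gave EC50 (50% inhibition); viability checked separately by CellTiter-Glo.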

[1] = read-out: sAg EC50, HepG2.2.15 cells
[2] = Hepatitis B virus, HepG2.2.15, 144 h, read-out: sAg EC50, HepG2.2.15 cells

Row | SMILES | EC50 [1] | EC50 [2]
1 | COc1c(F)ccc(C2CC2c2cnc(-c3ncccn3)nc2)c1F (single isomer, unassigned) [Example 189, trans-5-(2-(2,4-Difluoro-3-methoxyphenyl)cyclopropyl)-2,2′-bipyrimidine] | 120 nM | –
2 | Fc1cc(C2CC2c2cnc(-c3ncccn3)nc2)cc(N2CCCC2)c1F (single isomer, unassigned) [Example 93, trans-5-(2-(3,4-Difluoro-5-(pyrrolidin-1-yl)phenyl)cyclopropyl)-2,2′-bipyrimidine] | 19 nM | –
3 | COc1c(Cl)ccc(C2CC2c2cnc(-c3ncccn3)nc2)c1F (single isomer, unassigned) [Example 55, trans-5-(2-(4-Chloro-2-fluoro-3-methoxyphenyl)cyclopropyl)-2,2′-bipyrimidine] | 1000 nM | –
4 | CC(=O)N1CC[C@H](Nc2cc(C3CC3c3cnc(-c4ncccn4)nc3)cc(F)c2F)C1 (single isomer, unassigned) [Example 225] | 350 nM | –
5 | O=C1CCCN1c1cc(C2CC2c2cnc(-c3ncccn3)nc2)ccc1F (single isomer, unassigned) [Example 197, trans-1-(5-(2-([2,2′-Bipyrimidin]-5-yl)cyclopropyl)-2-fluorophenyl)pyrrolidin-2-one] | 3000 nM | –
6 | Fc1cc(F)c2nc([C@@H]3C[C@H]3c3cnc(-c4ncccn4)nc3)sc2c1 (relative stereo) [Example 270, trans-2-(2-([2,2′-Bipyrimidin]-5-yl)cyclopropyl)-4,6-difluorobenzo[d]thiazole] | – | 500 nM
7 | CO[C@H]1CN(c2cc(C3CC3c3cnc(-c4ncccn4)nc3)cc(F)c2F)C[C@H]1OC (relative stereo) [Example 235, trans-5-(2-(3-((3R,4S)-3,4-Dimethoxypyrrolidin-1-yl)-4,5-difluorophenyl)cyclopropyl)-2,2′-bipyrimidine] | – | 39 nM
8 | COc1cc(C2CC2c2cnc(-c3ncccn3)nc2)cc(OC)c1F (single isomer, unassigned) [Example 147, trans-5-(2-(4-Fluoro-3,5-dimethoxyphenyl)cyclopropyl)-2,2′-bipyrimidine] | 10000 nM | –
9 | COc1c(Cl)ccc(C2CC2c2cnc(-c3ncccn3)nc2)c1Cl (single isomer, unassigned) [Example 132, trans-5-(2-(2,4-Dichloro-3-methoxyphenyl)cyclopropyl)-2,2′-bipyrimidine] | – | 120 nM
10 | O[C@H]1CCN(c2cc(C3CC3c3cnc(-c4ncccn4)nc3)cc(F)c2F)C1 (single isomer, unassigned) [Example 107] | 21 nM | –
11 | Fc1c(Cl)cc(C2CC2c2cnc(-c3ncccn3)nc2)cc1N1CCCC1 (single isomer, unassigned) [Example 108, trans-5-(2-(3-Chloro-4-fluoro-5-(pyrrolidin-1-yl)phenyl)cyclopropyl)-2,2′-bipyrimidine] | 78 nM | –
12 | Cc1nc2c(F)cc([C@@H]3C[C@H]3c3cnc(-c4ncccn4)nc3)cc2s1 (relative stereo) [Example 272, trans-6-(2-([2,2′-Bipyrimidin]-5-yl)cyclopropyl)-4-fluoro-2-methylbenzo[d]thiazole] | – | 73 nM
13 | COc1c(Cl)ccc(C2CC2c2cnc(-c3ncccn3)nc2)c1F (single isomer, unassigned) [Example 56, trans-5-(2-(4-Chloro-2-fluoro-3-methoxyphenyl)cyclopropyl)-2,2′-bipyrimidine] | 470 nM | –
14 | O[C@@H]1CCN(c2cc(C3CC3c3cnc(-c4ncccn4)nc3)cc(F)c2F)C1 (single isomer, unassigned) [Example 105] | 97 nM | –
15 | CS(=O)(=O)N1CCN(c2cc(C3CC3c3cnc(-c4ncccn4)nc3)ccc2F)CC1 (single isomer, unassigned) [Example 42, trans-5-(2-(4-Fluoro-3-(4-(methylsulfonyl)piperazin-1-yl)phenyl)cyclopropyl)-2,2′-bipyrimidine] | 220 nM | –
16 | COc1cc(C2CC2c2cnc(-c3ncccn3)nc2)c(Cl)cc1Cl (single isomer, unassigned) [Example 89, trans-5-(2-(2,4-Dichloro-5-methoxyphenyl)cyclopropyl)-2,2′-bipyrimidine] | 610 nM | –
17 | Fc1cn(-c2cc(C3CC3c3cnc(-c4ncccn4)nc3)cc(F)c2F)cc1F (single isomer, unassigned) [Example 257, trans-5-(2-(3-(3,4-Difluoro-1H-pyrrol-1-yl)-4,5-difluorophenyl)cyclopropyl)-2,2′-bipyrimidine] | 140 nM | –
18 | CO[C@@H]1CCN(c2cc(C3CC3c3cnc(-c4ncccn4)nc3)cc(Cl)c2F)C1 (single isomer, unassigned) [Example 110] | – | 190 nM
19 | O=C1CCCN1c1cc(C2CC2c2cnc(-c3ncccn3)nc2)ccc1F (single isomer, unassigned) [Example 198, trans-1-(5-(2-([2,2′-Bipyrimidin]-5-yl)cyclopropyl)-2-fluorophenyl)pyrrolidin-2-one] | 430 nM | –

Row | SMILES | EC50 [1] | EC50 [2]
20 | Fc1ccc(C2CC2c2cnc(-c3ncccn3)nc2)cc1N1CCC(F)(F)C1 (single isomer, unassigned) [Example 44, trans-5-(2-(3-(3,3-Difluoropyrrolidin-1-yl)-4-fluorophenyl)cyclopropyl)-2,2′-bipyrimidine] | 110 nM | –
21 | CO[C@@H]1CCN(c2cc(C3CC3c3cnc(-c4ncccn4)nc3)ccc2F)C1 (single isomer, unassigned) [Example 94] | – | 270 nM
22 | Fc1cc(C2CC2c2cnc(-c3ncccn3)nc2)cc(O[C@H]2CCOC2)c1F (single isomer, unassigned) [Example 249] | 800 nM | –
23 | Fc1ccc(C2CC2c2cnc(-c3ncccn3)nc2)cc1N1CCCCC1 (single isomer, unassigned) [Example 196, trans-5-(2-(4-Fluoro-3-(piperidin-1-yl)phenyl)cyclopropyl)-2,2′-bipyrimidine] | 210 nM | –
24 | COc1ccc(C2CC2c2cnc(-c3ncccn3)nc2)cc1F (single isomer, unassigned) [Example 13, trans-5-(2-(3-Fluoro-4-methoxyphenyl)cyclopropyl)-2,2′-bipyrimidine] | 82 nM | –
25 | Fc1cc(C2CC2c2cnc(-c3ncccn3)nc2)cc(NC2CCCC2)c1F (single isomer, unassigned) [Example 207, trans-5-(2-([2,2′-Bipyrimidin]-5-yl)cyclopropyl)-N-cyclopentyl-2,3-difluoroaniline] | 750 nM | –
26 | COc1cc(C2CC2c2ccc(-c3ncccn3)nc2)cc(F)c1F (single isomer, unassigned) [Example 125, trans-2-(5-(2-(3,4-Difluoro-5-methoxyphenyl)cyclopropyl)pyridin-2-yl)pyrimidine] | 4 nM | –
27 | Fc1cc(C2CC2c2cnc(-c3ncccn3)nc2)cc(-n2ccnc2)c1F (single isomer, unassigned) [Example 181, trans-5-(2-(3,4-Difluoro-5-(1H-imidazol-1-yl)phenyl)cyclopropyl)-2,2′-bipyrimidine] | 390 nM | –
28 | COc1cc(C2CC2c2cnc(-c3ncccn3)nc2)ccc1Cl (single isomer, unassigned) [Example 33, trans-5-(2-(4-Chloro-3-methoxyphenyl)cyclopropyl)-2,2′-bipyrimidine] | 31 nM | –
29 | Cc1c(C2CC2c2cnc(-c3ncccn3)nc2)ccc(Cl)c1OCC1CC1 (single isomer, unassigned) [Example 62, trans-5-(2-(4-Chloro-3-(cyclopropylmethoxy)-2-methylphenyl)cyclopropyl)-2,2′-bipyrimidine] | 49000 nM | –
30 | COc1cc(OC(F)(F)F)cc([C@@H]2C[C@H]2c2cnc(-c3ncccn3)nc2)c1 (relative stereo) [Example 164, trans-5-(2-(3-Methoxy-5-(trifluoromethoxy)phenyl)cyclopropyl)-2,2′-bipyrimidine] | – | 480 nM
31 | Fc1ccc(C2CN(c3cc([C@@H]4C[C@H]4c4cnc(-c5ncccn5)nc4)cc(F)c3F)C2)cc1F (relative stereo) [Example 214, trans-5-(2-(3-(3-(3,4-difluorophenyl)azetidin-1-yl)-4,5-difluorophenyl)cyclopropyl)-2,2′-bipyrimidine] | – | 46 nM
32 | Fc1cc(Cl)cc(C2CC2c2cnc(-c3ncccn3)nc2)c1 (single isomer, unassigned) [Example 118, trans-5-(2-(3-Chloro-5-fluorophenyl)cyclopropyl)-2,2′-bipyrimidine] | 2000 nM | –
33 | CN(c1cc([C@@H]2C[C@H]2c2cnc(-c3ncccn3)nc2)cc(F)c1F)C1COC1 (relative stereo) [Example 233, trans-N-(5-(2-([2,2′-Bipyrimidin]-5-yl)cyclopropyl)-2,3-difluorophenyl)-N-methyloxetan-3-amine] | – | 84 nM
34 | Fc1ccc(C2CC2c2cnc(-c3ncccn3)nc2)cc1N1CCC(F)(F)C1 (single isomer, unassigned) [Example 43, trans-5-(2-(3-(3,3-Difluoropyrrolidin-1-yl)-4-fluorophenyl)cyclopropyl)-2,2′-bipyrimidine] | 250 nM | –
35 | COc1cc(F)cc(C2CC2c2cnc(-c3ncccn3)nc2)c1 (single isomer, unassigned) [Example 112, trans-5-(2-(3-Fluoro-5-methoxyphenyl)cyclopropyl)-2,2′-bipyrimidine] | 500 nM | –
36 | Fc1cc(C2CC2c2cnc(-c3ncccn3)nc2)cc(OCC2CC2)c1F (single isomer, unassigned) [Example 129, trans-5-(2-(3-(Cyclopropylmethoxy)-4,5-difluorophenyl)cyclopropyl)-2,2′-bipyrimidine] | 18 nM | –
37 | Fc1cc([C@@H]2C[C@H]2c2cnc(-c3ncccn3)nc2)cc(-n2cccn2)c1F (single isomer, unassigned) [Example 254, trans-5-(2-(3,4-Difluoro-5-(1H-pyrazol-1-yl)phenyl)cyclopropyl)-2,2′-bipyrimidine] | 47 nM | –
